Format in all cases: in vivo
Series [1] deals with unbehandelten Ratte. As to the kind of experiment: Determination of triglyceride lowering in the untreated rat over 4 days. The note with it: po, 96 h, 200 mg/kg per Magensonde, 4 Tage, serum triglycerides, percent versus control, 10 animals per group, read-out: Triglyceridsenkung in %. How it is done: Die Verbindungen wurden auf triglyceridsenkende Eigenschaften an der unbehandelten Ratte über einen Zeitraum von 4 Tagen untersucht. Die Substanzen wurden in der Dosierung von 200 mg/kg per Magensonde in 5 ml 1%-iger Traganth-Lösung appliziert. Die Blutentnahme erfolgte im Ätherrausch aus dem retrobulbären Venenplexus. Die Serumtriglyceride wurden nach Eggstein und Kreutz (Klin. Wschr. 44, 262 (1966)) bestimmt. Jede Gruppe bestand aus 10 Tieren. Die statistische Prüfung erfolgte nach dem Student-t-Test. Als Signifikanzgrenze diente p ≤0,01.
Die Triglyceridsenkung durch die untersuchten Substanzen in Prozent gegenüber der Kontrolle ist der Tabelle 2 zu entnehmen.

Series [2] is described as follows: Acute 7-day toxicity after a single administration (LD50, probit analysis). The note with it: in vivo, single administration, fasted NMRI mouse, 7 days. The source says: (§1) Die akute 7-Tage-Toxizität wurde nach einmaliger Applikation an der weißen, nüchternen NMRI-Maus bestimmt.
For series [3], the system named is Sprague-Dawley-Ratten mit diätetischer Hyperlipidämie. As to the kind of experiment: Lipid-lowering effect in rats with dietary hyperlipidaemia, 4 weeks p.o., compared with Clofibrat; liver weight. Conditions: for Serum Gesamt-Cholesterin / Serum Triglyceride / Lebergewicht: 4 Wochen; for Serum Gesamt-Cholesterin: 20 animals per group, Kontrolle 15,2 ± 2,4; for Serum Triglyceride: Kontrolle 1,04 ± 0,34; for Lebergewicht: Kontrolle 7,3 ± 0,7. As to the method:
Die Testsubstanz wurde über einen Zeitraum von 4 Wochen in Dosierungen von 100 und 200 mg/kg Körpergewicht p.o. täglich per Magensonde in 10 ml einer 1%-igen Traganth-Lösung verabreicht. Clofibrat wurde entsprechend in Dosierungen von 100 und 200 mg/kg gegeben. Die Kontrolltiere erhielten 10 ml der Trägerflüssigkeit Traganth/kg Körpergewicht per Magensonde.
Jede Gruppe bestand aus 20 Tieren; das Gewicht der Leber wurde festgestellt und verglichen.
Die Blutentnahme erfolgte im Ätherrausch aus dem retrobulbären Venenplexus.
Ausgeführt wurden Varianzanalyse und Student-t-Test. Als Signifikanzgrenze diente p≤0,01.

Series [4] relates to NMRI-Maus. As to the kind of experiment: Acute 7-day toxicity after a single administration (LD50, probit analysis). The note with it: for Toxizität: statement in words, test not specified.
Text: as §1

Series [5] relates to Versuchstieren. As to the kind of experiment: PCA test (passive cutaneous anaphylaxis reaction), peroral. The source says:
Die neuen Verbindungen eignen sich insbesondere aufgrund ihrer oralen antianaphylaktischen Wirksamkeit zur Behandlung von allergischen Reaktionen.

Where [6] appears, read: 100 mg/kg p.o. täglich, mean ± spread.

Like-named read-outs stand apart in the source and are kept apart here. Bounds are passed on as bounds.

Broadly, the LD50 is the dose at which mortality reaches 50%.

On to `CC(C)(Oc1cc(-c2cccc(Cl)c2)n(-c2ccccc2)n1)C(N)=O` [Substanz Nr. 3, 1-Phenyl-5-(3-chlorphenyl)-3-(2-aminocarbonyl-propyl-2-oxy)-pyrazol], for which, in series [1], the inhibition in vivo at 200 mg/kg stood at 30%.

For `CC(C)(Oc1cc(-c2ccccc2)[nH]n1)C(N)=O` [Substanz Nr. 1, 5-Phenyl-3-(2-aminocarbonylpropyl-2-oxy)-pyrazol], the inhibition in vivo at 200 mg/kg in series [1] was found to be 15%.

`CC(C)(Oc1cc(-c2ccc(Cl)cc2)n(-c2ccccc2)n1)C(N)=O` [Substanz Nr. 2, 1-Phenyl-5-(4-chlorphenyl)-3-(2-aminocarbonyl-propyl-2-oxy)-pyrazol]: the LD50 at 168 h in series [2] (ip, read-out: LD50 i.p.) is over 100 mg/kg; in series [2] (po, read-out: LD50 p.o.), over 1470 mg/kg. In series [1], the inhibition in vivo at 200 mg/kg is 20%.

For `CCOC(=O)C(C)(C)Oc1ccc(Cl)cc1` [Clofibrat, a-(p-Chlorphenoxy)-a-methyl-propionsäureäthylester, reference compound], the LD50 at 168 h is 566 mg/kg in series [2] (ip, read-out: LD50 i.p.) and over 1470 mg/kg in series [2] (po, read-out: LD50 p.o.). The “Serum Gesamt-Cholesterin” value is recorded as 6,9 ± 2,1 mmol/l in series [3] (setting [6]) and 5,9 ± 1,7 mmol/l in series [3] (200 mg/kg p.o. täglich). Moreover, the “Serum Triglyceride” value is listed as 0,90 ± 0,16 mmol/l in series [3] (100 mg/kg p.o. täglich) and 0,86 ± 0,66 mmol/l in series [3] (200 mg/kg p.o. täglich). The Lebergewicht in series [3] (100 mg/kg p.o. täglich) is recorded as 8,2 ± 0,9 g/100 g; in series [3] (200 mg/kg p.o. täglich), 8,2 ± 0,7 g/100 g.

On to `CC(C)(Oc1cc(-c2ccc(Cl)cc2)[nH]n1)C(N)=O` [Substanz Nr. 4, 5-(4-Chlorphenyl)-3-(2-aminocarbonylpropyl-2-oxy)-pyrazol], for which the inhibition in vivo at 200 mg/kg in series [1] is 15%.

For `CC(C)(Oc1cc(-c2ccc(Cl)cc2)[nH]n1)C(=O)O` [5-(4-Chlorphenyl)-3-(2-hydroxycarbonylpropyl-2-oxy)-pyrazol], the Toxizität entry in series [4] is recorded as “geringer Toxizität”. The “perorale antianaphylaktische Wirksamkeit” value in series [5] is “ausgeprägte perorale antianaphylaktische Wirksamkeit”.

On to `CC(C)(Oc1cc(-c2ccccc2)n(-c2ccccc2)n1)C(N)=O` [Substanz A, 1,5-Diphenyl-3-(2-aminocarbonylpropyl-2-oxy)-pyrazol], for which the LD50 at 168 h in series [2] (ip, read-out: LD50 i.p.) is 571 mg/kg; in series [2] (po, read-out: LD50 p.o.), over 1470 mg/kg. Also, the results for the “Serum Gesamt-Cholesterin” value in series [3] (setting [6]) and in series [3] (200 mg/kg p.o. täglich) were 6,8 ± 2,4 mmol/l and 5,5 ± 1,4 mmol/l, respectively. Besides, the “Serum Triglyceride” value in series [3] (100 mg/kg p.o. täglich) is on record as 0,83 ± 0,20 mmol/l; in series [3] (200 mg/kg p.o. täglich), 0,70 ± 0,16 mmol/l. The Lebergewicht in series [3] (100 mg/kg p.o. täglich) was 7,2 ± 0,6 g/100 g; in series [3] (200 mg/kg p.o. täglich), 7,4 ± 0,7 g/100 g. Further, the “Veränderungen der Leber (Zunahme des Lebergewichtes, Leberzellvergrößerung)” value in series [3] (4 Wochen p.o., 100 and 200 mg/kg) is given as “keinerlei Veränderungen der Leber”.

`CC(C)(Oc1cc(-c2ccccc2)n(-c2ccccc2)n1)C(=O)O` [Substanz Nr. 8, 1,5-Diphenyl-3-(2-hydroxycarbonylpropyl-2-oxy)-pyrazol]: in series [1], the inhibition in vivo at 200 mg/kg was determined as 30%.

For “1,5-Diphenyl-3-(2-äthoxycarbonylpropyl-2-oxy)-pyrazol [Beispiel 1]”, in series [4] (i.p., single administration, fasted NMRI mouse, 7 days), the LD50 i.p. is 684 mg/kg. Besides, in series [4] (p.o., single administration, fasted NMRI mouse, 7 days), the LD50 p.o. is over 1470 mg/kg.

As to `CCOC(=O)C(C)(C)Oc1cc(-c2ccc(Cl)cc2)n(-c2ccccc2)n1` [Substanz Nr. 6, 1-Phenyl-5-(4-chlorphenyl)-3-(2-äthoxycarbonyl-propyl-2-oxy)-pyrazol], the inhibition in vivo at 200 mg/kg in series [1] was 20%.

As for `CC(C)(Oc1cc(-c2ccccc2)[nH]n1)C(=O)O` [5-Phenyl-3-(2-hydroxycarbonylpropyl-2-oxy)-pyrazol], the Toxizität result in series [4] is given as “geringer Toxizität”. In addition, in series [5], the “perorale antianaphylaktische Wirksamkeit” value is recorded as “ausgeprägte perorale antianaphylaktische Wirksamkeit”.

As for `CCOC(=O)C(C)(C)Oc1cc(-c2ccccc2)[nH]n1` [Substanz Nr. 7, 5-Phenyl-3-(2-äthoxycarbonylpropyl-2-oxy)-pyrazol], in series [1], the inhibition in vivo at 200 mg/kg came out at 25%.

With `CC(C)(Oc1cc(-c2ccc(Cl)cc2)n(Cc2ccccc2)n1)C(N)=O` [Substanz Nr. 5, 1-Benzyl-5-(4-chlorphenyl)-3-(2-aminocarbonyl-propyl-2-oxy)-pyrazol], the inhibition in vivo at 200 mg/kg in series [1] was determined as 15%.

These data come from EP0007019A1, “5-Phenyl-pyrazole derivatives and their salts, processes for their preparation and medicines containing them” (Kali-Chemie Pharma GmbH, priority 1978, dated 1980).
